The results in this text go back to patent publication US10392422B2, “Macrocyclic broad spectrum antibiotics” (priority 2014, dated 2019).

Assay [1] has as its system Methicillin Resistant Staphylococcus aureus strain USA 300 (NRS384). The experiment in a line: MIC, broth micro-dilution technique (CLSI). The class given is cell-based. To be noted: for MIC: Staphylococcus aureus, 22 h, read-out: MIC (μg/mL) S. aureus. The protocol: (§1) In vitro antimicrobial activity of each compound was determined by measuring minimal inhibitor concentrations (MICs) using the broth micro-dilution technique as approved by the Clinical and Laboratory Standards Institute (CLSI) (Methods for Dilution Antimicrobial Susceptibility Tests for Bacteria that Grow Aerobically; Approved Standard—Eighth Edition. CLSI document M07-A8. Wayne, Pa.: Clinical and Laboratory Standards; 2009). Antibacterial activity was measured against three strains of bacteria: a Methicillin Resistant Staphylococcus aureus strain USA 300 (NRS384); a MRSA COL (NRS100), another Methicillin Resistant Staphylococcus aureus strain; and a strain of Escherichia coli MC4100 harboring the IMP4213, which results in increased outer-membrane permeability (B Martin and Silhavy T. Imp/OstA is required for cell envelope biogenesis in Escherichia coli. (2002) Molecular Microbiology, 45(5), 1289-1302). Cells were inoculated onto plates of Trypyticase Soy Agar or Luria Agar respectively and grown at 35° C. for 20 hours. Inocula suspensions were prepared by scraping cells into 1 ml of testing media (cation adjusted Mueller Hinton Broth supplemented with 0.002% v/v Tween-80) and diluting to a final OD600 nm of 0.01.
(§2) Test compounds were prepared in DMSO at a concentration of 10 mg/ml. These compound stocks were diluted into testing media at a concentration of 64 μg/ml and serial 2-fold dilutions were made in the same media, in 96-well U bottom microtiter dishes, for a total of 10 compound concentrations (Table 1). In modified protocols (Table 2), compound stocks were diluted into testing media at a concentration of 4 μg/mL and serial 2-fold dilutions were made in the same media, in 96-well U bottom microtiter dishes, for a total of 10 compound concentrations. Inocula suspensions were added to the 2-fold serial dilutions of test compounds to a final density of OD OD600 nm of 0.0005 and incubated at 35° C. for 22 hours. […] The results from the protocol starting from a concentration of 64 µg/mL are listed in Table 1 and the results from the modified protocol are shown in Table 2.
A general note: In broth dilution the organism is exposed to a series of concentrations in liquid medium.

Assay [2] concerns Escherichia coli MC4100 harboring the IMP4213. The experiment in a line: MIC, broth micro-dilution technique (CLSI). The class given is cell-based. Particulars: 35° C., 22 hours; for MIC: Escherichia coli, 22 h, read-out: MIC (μg/mL) E. coli, Table 1 protocol: serial 2-fold dilutions starting from 64 μg/ml; for MIC (μg/mL) E. coli: Table 1 protocol: serial 2-fold dilutions starting from 64 μg/ml. The procedure:
as §1, §2

Where [3] appears, read: Table 1 protocol: serial 2-fold dilutions starting from 64 μg/ml, 35° C., 22 hours.

In brackets after ≈: the same amount, converted by molar mass. Read-outs that look alike come from different tables or passages of the source. Some results are limits rather than exact numbers.

As for `C[C@@H]1NC(=O)[C@@H](N(C)C(=O)[C@H](CCCCN)NC(=O)c2ccc(-c3ccc(Cl)cc3)cc2)c2ccc(O)c(c2)-c2cc(ccc2O)C[C@@H](C(=O)N[C@@H](C)C(=O)N2CCCC[C@H]2C(N)=O)NC1=O` [Compound 173], the MIC in assay [1] (setting [3]) was 64 µg/mL (≈ 68.3 µM); in assay [2], 32 µg/mL (≈ 34.1 µM).
The like results for `CC1OC1C(=O)[C@H](C)NC(=O)[C@@H]1Cc2ccc(O)c(c2)-c2cc(ccc2O)[C@H](N(C)C(=O)[C@H](CCCCN)NC(=O)c2ccc(-c3ccc(Cl)cc3)cc2)C(=O)N[C@@H](C)C(=O)N1` (some centres unmarked) [Compound 105] were, in that order, 4 µg/mL (≈ 4.61 µM) and 8 µg/mL (≈ 9.22 µM).
For the compound `C[C@@H]1NC(=O)[C@@H](N(C)C(=O)[C@H](CCCCN)NC(=O)c2ccc(-c3ccc(Cl)cc3)cc2)c2ccc(O)c(c2)-c2cc(ccc2O)C[C@@H](C(=O)NCC(=O)CC2CCNC2=O)NC1=O` (some centres unmarked) [Compound 151], the “MIC (μg/mL) S. aureus” value in assay [1] (setting [3]) is over 64 µg/mL. For the same compound, the “MIC (μg/mL) E. coli” value in assay [2] came to 32 µg/mL (≈ 35.8 µM).
For the compound `CC(O)[C@@H]1Cc2ccc(O)c(c2)-c2cc(ccc2O)[C@H](N(C)C(=O)[C@H](CCCCN)NC(=O)c2ccc(-c3ccc(Cl)cc3)cc2)C(=O)N[C@@H](C)C(=O)N1` (some centres unmarked) [Compound 154], the MIC in assay [1] and in assay [2] was 64 µg/mL (≈ 84.6 µM) in each case.
Regarding `C[C@@H]1NC(=O)[C@@H](N(C)C(=O)[C@H](CCCCN)NC(=O)c2ccc(-c3ccc(Cl)cc3)cc2)c2ccc(O)c(c2)-c2cc(ccc2O)C[C@@H](C(=O)N[C@@H](C)C(=O)N2C[C@H](O)C[C@H]2C(N)=O)NC1=O` [Compound 169], the MIC stood at 45 µg/mL (≈ 47.9 µM) in assay [1] (setting [3]) and 64 µg/mL (≈ 68.1 µM) in assay [2].
The matching figures for `C[C@@H]1NC(=O)[C@@H](N(C)C(=O)[C@H](CCCCN)NC(=O)c2ccc(-c3ccc(Cl)cc3)cc2)c2ccc(O)c(c2)-c2cc(ccc2O)C[C@@H](C(=O)N[C@@H](C)C(=O)N2CC(F)(F)C[C@H]2C(N)=O)NC1=O` [Compound 174]: 9.5 µg/mL (≈ 9.9 µM) and 64 µg/mL (≈ 66.7 µM).
On to `C[C@H](NC(=O)[C@@H]1Cc2ccc(O)c(c2)-c2cc(ccc2O)[C@H](N(C)C(=O)[C@H](CCCCN)NC(=O)c2ccc(-c3ccc(Cl)cc3)cc2)C(=O)N[C@@H](C)C(=O)N1)C(=O)CCl` [Compound 108], for which the MIC in assay [1] stood at 4 µg/mL (≈ 4.65 µM); in assay [2], 8 µg/mL (≈ 9.3 µM).
Consider `CCCCCCCC(=O)NCCC(=O)N[C@@H](CCCCN)C(=O)N(C)[C@@H]1C(=O)N[C@@H](C)C(=O)N[C@H](C(=O)N[C@@H](C)C(=O)C2CO2)Cc2ccc(O)c(c2)-c2cc1ccc2O` (some centres unmarked) [Compound 101], for which the MIC in assay [1] is 64 µg/mL (≈ 76.6 µM); in assay [2] it was over 64 µg/mL.
Consider `CC(=O)OCC(=O)[C@H](C)NC(=O)[C@@H]1Cc2ccc(O)c(c2)-c2cc(ccc2O)[C@H](N(C)C(=O)[C@H](CCCCN)NC(=O)c2ccc(-c3ccc(Cl)cc3)cc2)C(=O)N[C@@H](C)C(=O)N1` [Compound 123], for which the MIC in assay [1] was found to be 3.2 µg/mL (≈ 3.62 µM); in assay [2], 32 µg/mL (≈ 36.2 µM).
Take `C[C@H](NC(=O)[C@@H]1Cc2ccc(O)c(c2)-c2cc(ccc2O)[C@H](N(C)C(=O)[C@H](CCCCN)NC(=O)c2ccc(-c3ccc(Cl)cc3)cc2)C(=O)N[C@@H](C)C(=O)N1)C(=O)/C=C/c1c[nH]cn1` [Compound 131]: the MIC in assay [1] (setting [3]) and in assay [2] was over 64 µg/mL throughout.
For the compound `CCCCCCCCCCCCCC(=O)N[C@@H](CN)C(=O)N(C)[C@@H]1C(=O)N[C@@H](C)C(=O)N[C@H](C(=O)N[C@@H](C)B2O[C@@H]3C[C@@H]4C[C@@H](C4(C)C)[C@]3(C)O2)Cc2ccc(OCCN)c(c2)-c2cc1ccc2OCCN` [Compound 318], the MIC in assay [2] worked out at 0.063 µg/mL (≈ 0.0629 µM).
With `CCCCCCCC(=O)NCCC(=O)N[C@@H](CCCCN)C(=O)N(C)[C@@H]1C(=O)N[C@@H](C)C(=O)N[C@H](CO)Cc2ccc(O)c(c2)-c2cc1ccc2O` [Compound 153], the MIC in assay [1] (setting [3]) turned out to be 130 µg/mL (≈ 179 µM).
Regarding `CC1OC1C(=O)[C@H](C)NC(=O)[C@@H]1Cc2ccc(O)c(c2)-c2cc(ccc2O)[C@H](N(C)C(=O)[C@H](CCCCN)NC(=O)c2ccc(-c3ccc(Cl)cc3)cc2)C(=O)N[C@@H](C)C(=O)N1` (some centres unmarked) [Compound 106], in assay [1] (setting [3]), the “MIC (μg/mL) S. aureus” value came out at 5.7 µg/mL (≈ 6.57 µM). For the same compound, in assay [2], the “MIC (μg/mL) E. coli” value stood at 11 µg/mL (≈ 12.7 µM).
The matching figures for `CCCCCCCC(=O)NCCC(=O)N[C@@H](CCCCN)C(=O)N(C)[C@@H]1C(=O)N[C@@H](C)C(=O)N[C@H](C(=O)N[C@@H](C)C(=O)C2CO2)Cc2ccc(O)c(c2)-c2cc1ccc2O` (some centres unmarked) [Compound 102]: 64 µg/mL (≈ 76.6 µM) and over 64 µg/mL.
Turning to `C[C@H](NC(=O)[C@@H]1Cc2ccc(O)c(c2)-c2cc(ccc2O)[C@H](N(C)C(=O)[C@H](CCCCN)NC(=O)c2ccc(-c3ccc(Cl)cc3)cc2)C(=O)N[C@@H](C)C(=O)N1)C(=O)CS(N)(=O)=O` [Compound 143], the MIC in assay [1] is 6.3 µg/mL (≈ 6.97 µM); in assay [2] it was 51 µg/mL (≈ 56.4 µM).
With `C[C@@H]1NC(=O)[C@@H](N(C)C(=O)[C@H](CCCCN)NC(=O)c2ccc(-c3ccc(Cl)cc3)cc2)c2ccc(O)c(c2)-c2cc(ccc2O)C[C@@H](C(=O)N[C@@H](C)C(=O)N2C[C@@H](F)C[C@H]2C(N)=O)NC1=O` [Compound 172], the MIC in assay [1] (setting [3]) turned out to be 16 µg/mL (≈ 17 µM); in assay [2], 64 µg/mL (≈ 68 µM).
The matching figures for `C[C@@H]1NC(=O)[C@@H](N(C)C(=O)[C@H](CCCCN)NC(=O)c2ccc(-c3ccc(Cl)cc3)cc2)c2ccc(O)c(c2)-c2cc(ccc2O)C[C@@H](C(=O)N[C@@H](C)C(=O)N2CC[C@H](O)[C@H]2C(N)=O)NC1=O` [Compound 168]: 5.7 µg/mL (≈ 6.07 µM) and 32 µg/mL (≈ 34.1 µM).
The like results for `C[C@@H]1NC(=O)[C@@H](N(C)C(=O)[C@H](CCCCN)NC(=O)c2ccc(-c3ccc(Cl)cc3)cc2)c2ccc(O)c(c2)-c2cc(ccc2O)C[C@@H](C(=O)N[C@@H](C)C(=O)N2CC[C@H]2C(N)=O)NC1=O` [Compound 171] were, in that order, 20 µg/mL (≈ 22 µM) and 64 µg/mL (≈ 70.4 µM).
For the compound `CCCCCCCC(=O)N[C@@H](CCCCN)C(=O)N(C)[C@@H]1C(=O)N[C@@H](C)C(=O)N[C@H](C(=O)N[C@@H](C)C(=O)C2CO2)Cc2ccc(O)c(c2)-c2cc1ccc2O` (some centres unmarked) [Compound 103], the MIC in assay [1] (setting [3]) was 45 µg/mL (≈ 58.8 µM); in assay [2] it was 23 µg/mL (≈ 30.1 µM).
As for `COC(=O)[C@@H]1CCCN1CC(=O)[C@H](C)NC(=O)[C@@H]1Cc2ccc(O)c(c2)-c2cc(ccc2O)[C@H](N(C)C(=O)[C@H](CCCCN)NC(=O)c2ccc(-c3ccc(Cl)cc3)cc2)C(=O)N[C@@H](C)C(=O)N1` [Compound 126], the MIC in assay [1] was 32 µg/mL (≈ 33.6 µM); in assay [2], over 64 µg/mL.
The like results for `C[C@@H]1NC(=O)[C@@H](N(C)C(=O)[C@H](CCCCN)NC(=O)c2ccc(-c3ccc(Cl)cc3)cc2)c2cc(Br)c(O)c(c2)-c2cc(cc(Br)c2O)C[C@@H](C(=O)O)NC1=O` [Compound 164] were, in that order, 32 µg/mL (≈ 35 µM) and 8 µg/mL (≈ 8.75 µM).
Take `CC[C@H](NC(=O)[C@@H]1Cc2ccc(O)c(c2)-c2cc(ccc2O)[C@H](N(C)C(=O)[C@H](CCCCN)NC(=O)c2ccc(-c3ccc(Cl)cc3)cc2)C(=O)N[C@@H](C)C(=O)N1)C(=O)N1CCC[C@H]1C(N)=O` [Compound 181]: the MIC in assay [1] (setting [3]) was found to be 23 µg/mL (≈ 24.5 µM); in assay [2], 64 µg/mL (≈ 68.3 µM).
On to `C[C@@H]1NC(=O)[C@@H](N(C)C(=O)[C@H](CCCCN)NC(=O)c2ccc(-c3ccc(Cl)cc3)cc2)c2ccc(O)c(c2)-c2cc(ccc2O)C[C@@H](C(=O)N[C@@H](C)C(=O)N2CCCC2)NC1=O` [Compound 156], for which the MIC in assay [1] is over 64 µg/mL; in assay [2], 51 µg/mL (≈ 57.9 µM).
Turning to `C[C@@H]1NC(=O)[C@@H](N(C)C(=O)[C@H](CCCCN)NC(=O)c2ccc(-c3ccc(Cl)cc3)cc2)c2ccc(O)c(c2)-c2cc(ccc2O)C[C@@H](C(=O)N[C@@H](C)C(=O)N2C[C@H]3C[C@H]3[C@H]2C(N)=O)NC1=O` [Compound 170], the MIC was determined as 45 µg/mL (≈ 48.1 µM) in assay [1] (setting [3]) and 64 µg/mL (≈ 68.4 µM) in assay [2].
For `C[C@@H]1NC(=O)[C@@H](N(C)C(=O)[C@H](CCCCN)NC(=O)c2ccc(-c3ccc(Cl)cc3)cc2)c2ccc(O)c(c2)-c2cc(ccc2O)C[C@@H](C(=O)NCC(=O)CC2CCNC2=O)NC1=O` (some centres unmarked) [Compound 150], the MIC in assay [1] (setting [3]) was over 64 µg/mL. For the same compound, the “MIC (μg/mL) E. coli” value in assay [2] turned out to be 8 µg/mL (≈ 8.94 µM).
As to `CCCCc1ccc(-c2ccc(C(=O)NC[C@@H](C)C(=O)N[C@@H](CCCCN)C(=O)N(C)[C@@H]3C(=O)N[C@@H](C)C(=O)N[C@H](C(=O)N[C@@H](C)C(=O)N4CCC[C@H]4C(N)=O)Cc4ccc(O)c(c4)-c4cc3ccc4OC(=O)OCC(C)C)cc2)cc1` [Compound 184], the MIC in assay [1] was 2 µg/mL (≈ 1.77 µM).
For the compound `CCCCc1ccc(-c2ccc(C(=O)N[C@@H](CN)C(=O)N(C)[C@@H]3C(=O)N[C@@H](C)C(=O)N[C@H](C(=O)O)Cc4ccc(OCCN)c(c4)-c4cc3ccc4OCCN)cc2)cc1` [Compound 292], in assay [2], the MIC was 0.063 µg/mL (≈ 0.0766 µM).
